Results on two compounds are retold here after patent US20230111132A1, “STABILIZATION OF MHC COMPLEXES” (The Regents of the University of California, priority 2019, published 2023).

SMILES strings stand for the structures.

Assay [1] has as its target T1, HLA-B*57:01 (Homo sapiens, UniProt P01889, D201E/D98Y/E176V/E187L/E204Q/E69M/E70A/G107R/I90N/K202T/L105A/L119I/N104I/N87E/Q89R/Q94S/R106L/R155S/R180L/R86G/S101N/S121V/S35A/S48A/T118I/V36M/Y140S/Y91M). Briefly: MHC refolding ELISA (capture ELISA of refolded MHC-peptide complex). The format is biochemical. Further details: Denatured heavy chain (final concentration 1 μM). The method, then:
FIG. 13. Primary assay: refolding ELISA.
Refolding reactions were set up in 96-well plates on ice by the successive addition of the following: • 1. Refolding Buffer (400 mM Arg-HCl, 100 mM Tris 8.0, 5 mM glutathione (GSH), 0.5 mM glutathione disulfide (GSSG), 1× cOmplete protease inhibitor cocktail); • 2. Beta-2-microglobulin (final concentration 2 μM). • 3. Peptide (final concentration 40 μM). • 4. Denatured heavy chain (final concentration 1 μM).
[…] Meanwhile, 96-well ELISA plate (Coming 3361) was treated with W6/32 (5 μg/mL) at 4° C. overnight. The plate was washed with PBS (2×200 μL), then blocked with 375 μL 3% BSA/PBS at 23° C. for 1 h. After washing the plate with PBST (3×200 μL), 90 μL 1% BSA/PBS was added to each well.
Detection of refolding was performed as follows: • 1. Add 10 μL of the refolding mixture to each well of the ELISA plate. • 2. Incubate the plate with shaking at 23° C. for 1 h. • 3. Wash plate with 1% BSA/PBS (3×200 μL). • 4. Add 50 μL BBM.1-HRP (1 μg/mL in 1% BSA/PBS) and incubate the plate with shaking at 23° C. for 1 h. • 5. Wash plate with PBST (3×200 μL). • 6. Wash plate with PBS (1×100 μL). • 7. Add 50 μL TMB Ultra and incubate the plate with shaking for 5 min. • 8. Stop the reaction by addition of 20 μL 2.0 M sulfuric acid. • Read absorbance at 450 nm within 10 min. […]

Assay [2] has as its target T1, HLA-B*57:01. The following applies: PepV HSITYLLPV; known; cited from earlier work.

With `CNS(=O)(=O)c1cc(Nc2nccc(N(C)c3ccc4nn(C)c(C)c4c3)n2)ccc1C` [09-045B], at HLA-B*57:01 [1] (40 μM G12V 7-16, 1% DMSO, 10° C., 72 hours), the “MHC-peptide complex formation after 72 h” value is given as “may be less susceptible to this instability”.
As for `Nc1nc(NC2CC2)c2ncn([C@H]3C=C[C@@H](CO)C3)c2n1` [abacavir], at HLA-B*57:01 [2], the “stabilization of PepV in HLA-B*57:01” value is “stabilized”. Further, on HLA-B*57:01 [1] (peptide panel VVVGAVGVGG/A/V/I/K/W and HSITYLLPV (FIG. 8, FIG. 9)), the “stabilization of the presentation of mutant K-Ras peptides by HLA-B*57:01” value is “induced stabilization”.
